Data reported in the NIST ThermoML archive (doi:10.1021/je800527p).

Assay: mn = molality of the nth substance listed, in mol/kg
Conditions: 101 kPa, Liquid

N[C@@H](CC(=O)NCC(=O)O)C(=O)NCC(=O)O [L-aspartoylbisglycine] + O
Conditions	mass density [kg/m3]
288.15 K, m1 = 0.02634	1001.74
288.15 K, m1 = 0.03248	1002.34
288.15 K, m1 = 0.03979	1003.07
288.15 K, m1 = 0.04516	1003.6
288.15 K, m1 = 0.05155	1004.23
288.15 K, m1 = 0.05974	1005.03
288.15 K, m1 = 0.06457	1005.5
288.15 K, m1 = 0.06951	1005.98
298.15 K, m1 = 0.02287	999.295
298.15 K, m1 = 0.02484	999.489
298.15 K, m1 = 0.02795	999.79
298.15 K, m1 = 0.03159	1000.15
298.15 K, m1 = 0.0337	1000.35
298.15 K, m1 = 0.03757	1000.73
298.15 K, m1 = 0.04282	1001.24
298.15 K, m1 = 0.0486	1001.8
298.15 K, m1 = 0.05367	1002.29
298.15 K, m1 = 0.05892	1002.8
303.15 K, m1 = 0.02228	997.821
303.15 K, m1 = 0.02508	998.095
303.15 K, m1 = 0.02783	998.36
303.15 K, m1 = 0.0319	998.757
303.15 K, m1 = 0.03772	999.316
303.15 K, m1 = 0.0429	999.814
303.15 K, m1 = 0.04971	1000.47
303.15 K, m1 = 0.0554	1001.02
303.15 K, m1 = 0.06187	1001.64
313.15 K, m1 = 0.02228	994.368
313.15 K, m1 = 0.02508	994.635
313.15 K, m1 = 0.02783	994.898
313.15 K, m1 = 0.0319	995.29
313.15 K, m1 = 0.03772	995.842
313.15 K, m1 = 0.0429	996.336
313.15 K, m1 = 0.04971	996.987
313.15 K, m1 = 0.0554	997.526
313.15 K, m1 = 0.06187	998.14

NCC(=O)N[C@@H](CS)C(=O)NCC(=O)O [glycyl-L-cysteinylglycine] + O
Conditions	mass density [kg/m3]
288.15 K, m1 = 0.01633	1000.63
288.15 K, m1 = 0.02087	1001.05
288.15 K, m1 = 0.02582	1001.51
288.15 K, m1 = 0.02984	1001.88
288.15 K, m1 = 0.03474	1002.34
288.15 K, m1 = 0.0395	1002.78
288.15 K, m1 = 0.04097	1002.91
288.15 K, m1 = 0.04442	1003.23
288.15 K, m1 = 0.04953	1003.71
303.15 K, m1 = 0.02103	997.568
303.15 K, m1 = 0.02497	997.92
303.15 K, m1 = 0.02788	998.184
303.15 K, m1 = 0.03046	998.417
303.15 K, m1 = 0.03394	998.731
303.15 K, m1 = 0.0374	999.043
303.15 K, m1 = 0.04008	999.279
303.15 K, m1 = 0.04358	999.593
303.15 K, m1 = 0.05003	1000.17
303.15 K, m1 = 0.05296	1000.43
313.15 K, m1 = 0.02094	994.099
313.15 K, m1 = 0.03109	995.001
313.15 K, m1 = 0.03597	995.437
313.15 K, m1 = 0.03941	995.739
313.15 K, m1 = 0.04508	996.242
313.15 K, m1 = 0.05002	996.672
313.15 K, m1 = 0.05218	996.867
313.15 K, m1 = 0.05751	997.331

NCC(=O)N[C@@H](Cc1cnc[nH]1)C(=O)NCC(=O)O [glycyl-L-histidylglycine] + O
Conditions	mass density [kg/m3]
288.15 K, m1 = 0.004019	999.501
288.15 K, m1 = 0.00501	999.6
288.15 K, m1 = 0.006072	999.708
288.15 K, m1 = 0.007051	999.802
288.15 K, m1 = 0.008127	999.911
288.15 K, m1 = 0.00901	1000
288.15 K, m1 = 0.01012	1000.11
288.15 K, m1 = 0.01088	1000.19
288.15 K, m1 = 0.01205	1000.31
298.15 K, m1 = 0.004009	997.442
298.15 K, m1 = 0.007226	997.762
298.15 K, m1 = 0.008041	997.838
298.15 K, m1 = 0.00901	997.939
298.15 K, m1 = 0.01009	998.038
298.15 K, m1 = 0.01109	998.142
298.15 K, m1 = 0.01227	998.254
303.15 K, m1 = 0.00404	996.046
303.15 K, m1 = 0.00498	996.138
303.15 K, m1 = 0.006103	996.247
303.15 K, m1 = 0.00711	996.346
303.15 K, m1 = 0.007975	996.427
303.15 K, m1 = 0.01106	996.73
303.15 K, m1 = 0.01225	996.842
313.15 K, m1 = 0.005108	992.711
313.15 K, m1 = 0.006051	992.804
313.15 K, m1 = 0.006936	992.89
313.15 K, m1 = 0.0082	993.012
313.15 K, m1 = 0.01022	993.207
313.15 K, m1 = 0.01138	993.309
313.15 K, m1 = 0.01232	993.4

NCC(=O)N[C@@H](CO)C(=O)NCC(=O)O [glycyl-L-serylglycine] + O
Conditions	mass density [kg/m3]
288.15 K, m1 = 0.03014	1001.82
288.15 K, m1 = 0.03542	1002.28
288.15 K, m1 = 0.04107	1002.79
288.15 K, m1 = 0.04543	1003.18
288.15 K, m1 = 0.05019	1003.61
288.15 K, m1 = 0.05524	1004.05
288.15 K, m1 = 0.06026	1004.51
288.15 K, m1 = 0.06526	1004.95
298.15 K, m1 = 0.025	999.264
298.15 K, m1 = 0.0306	999.768
298.15 K, m1 = 0.03505	1000.16
298.15 K, m1 = 0.04024	1000.61
298.15 K, m1 = 0.04521	1001.05
298.15 K, m1 = 0.05166	1001.62
298.15 K, m1 = 0.05493	1001.9
298.15 K, m1 = 0.0598	1002.34
298.15 K, m1 = 0.06564	1002.84
303.15 K, m1 = 0.02533	997.881
303.15 K, m1 = 0.02992	998.289
303.15 K, m1 = 0.03496	998.733
303.15 K, m1 = 0.0453	999.64
303.15 K, m1 = 0.05003	1000.05
303.15 K, m1 = 0.0555	1000.53
303.15 K, m1 = 0.06095	1001
303.15 K, m1 = 0.06473	1001.34
313.15 K, m1 = 0.02969	994.793
313.15 K, m1 = 0.03329	995.098
313.15 K, m1 = 0.03976	995.655
313.15 K, m1 = 0.04401	996.025
313.15 K, m1 = 0.04969	996.506
313.15 K, m1 = 0.05419	996.891
313.15 K, m1 = 0.05935	997.32
313.15 K, m1 = 0.06498	997.808

NCC(=O)N[C@@H](Cc1ccc(O)cc1)C(=O)NCC(=O)O [glycyl-L-tyrosylglycine] + O
Conditions	mass density [kg/m3]
288.15 K, m1 = 0.01708	1000.85
288.15 K, m1 = 0.01938	1001.08
288.15 K, m1 = 0.02117	1001.26
288.15 K, m1 = 0.023	1001.45
288.15 K, m1 = 0.02384	1001.53
288.15 K, m1 = 0.02504	1001.65
288.15 K, m1 = 0.02575	1001.72
288.15 K, m1 = 0.02705	1001.85
288.15 K, m1 = 0.0279	1001.95
288.15 K, m1 = 0.02909	1002.06
303.15 K, m1 = 0.01685	997.325
303.15 K, m1 = 0.01781	997.42
303.15 K, m1 = 0.019	997.535
303.15 K, m1 = 0.02087	997.719
303.15 K, m1 = 0.02301	997.932
303.15 K, m1 = 0.02396	998.023
303.15 K, m1 = 0.02501	998.127
303.15 K, m1 = 0.02604	998.224
303.15 K, m1 = 0.02701	998.323
303.15 K, m1 = 0.02792	998.415
303.15 K, m1 = 0.02882	998.496
313.15 K, m1 = 0.017	993.889
313.15 K, m1 = 0.01785	993.972
313.15 K, m1 = 0.01889	994.065
313.15 K, m1 = 0.02086	994.259
313.15 K, m1 = 0.0216	994.332
313.15 K, m1 = 0.02288	994.456
313.15 K, m1 = 0.02376	994.546
313.15 K, m1 = 0.02492	994.655
313.15 K, m1 = 0.02586	994.742
313.15 K, m1 = 0.02688	994.842
313.15 K, m1 = 0.02763	994.913
313.15 K, m1 = 0.02902	995.047
